Measurements: the supplement of paper PMC10307832

Columns and labels:
Assay in all cases: relative viability (nuclei count vs DMSO), 5 days (fraction); higher = more cells survive
[1] = tested on: NCI-H1666
Outline: (§1)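 Lung cancer cell lines in 1536-well plates were dosed by pin tool the day after seeding, either with one drug alone or with a fixed anchor-drug dose plus five library-drug doses (not always all listed) in √10 steps. After 5 days, cells were fixed and their nuclei stained in one step (final 0.05% Triton X-100, 1% formaldehyde, 1 ug/ml Hoechst), then counted on 4× images. Relative viability is the nuclei count in treated wells divided by that in vehicle wells. Values are medians of duplicate plates.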

[2] = tested on: UMC-11
Outline: as §1

[3] = tested on: LU99A
Outline: as §1

[4] = tested on: COR-L 105
Outline: as §1

[5] = tested on: LC-2-ad
Outline: as §1

[6] = tested on: NCI-H1792
Outline: as §1

[7] = tested on: NCI-H358
Outline: as §1

[8] = tested on: NCI-H1915
Outline: as §1

[9] = tested on: LXF-289
Outline: as §1

[10] = tested on: HCC-78
Outline: as §1

[11] = tested on: EPLC-272H
Outline: as §1

[12] = tested on: NCI-H1944
Outline: as §1

[13] = tested on: NCI-H2170
Outline: as §1

[14] = tested on: NCI-H2009
Outline: as §1

[15] = tested on: NCI-H2085
Outline: as §1

[16] = tested on: SK-LU-1
Outline: as §1

[17] = tested on: NCI-H460
Outline: as §1

[18] = tested on: SW 900
Outline: as §1

[19] = tested on: HCC-366
Outline: as §1

[20] = tested on: NCI-H1793
Outline: as §1

[21] = tested on: A-427
Outline: as §1

[22] = tested on: HOP-62
Outline: as §1

## COc1nc(C)cnc1NS(=O)(=O)c1cccnc1-c1ccc(-c2nnco2)cc1 [Zibotentan] + Nc1nc2[nH]cc(CCc3ccc(C(=O)N[C@@H](CCC(=O)O)C(=O)O)cc3)c2c(=O)[nH]1 [Pemetrexed] (partner 0.2 µM)
[1]; first compound 0.08 µM
  relative viability: 0.842
[1]; first compound 0.253 µM
  relative viability: 0.726
[1]; first compound 0.8 µM
  relative viability: 0.862
[1]; first compound 2.53 µM
  relative viability: 0.829
[2]; first compound 0.08 µM
  relative viability: 0.671
[2]; first compound 0.253 µM
  relative viability: 0.727
[2]; first compound 0.8 µM
  relative viability: 0.742
[2]; first compound 2.53 µM
  relative viability: 0.859
[3]; first compound 0.08 µM
  relative viability: 0.169
[3]; first compound 0.253 µM
  relative viability: 0.177
[3]; first compound 0.8 µM
  relative viability: 0.14
[3]; first compound 2.53 µM
  relative viability: 0.198
[4]; first compound 0.08 µM
  relative viability: 1.08
[4]; first compound 0.253 µM
  relative viability: 0.87
[4]; first compound 0.8 µM
  relative viability: 1.21
[4]; first compound 2.53 µM
  relative viability: 1.05
[5]; first compound 0.08 µM
  relative viability: 0.251
[5]; first compound 0.253 µM
  relative viability: 0.286
[5]; first compound 0.8 µM
  relative viability: 0.27
[5]; first compound 2.53 µM
  relative viability: 0.274
[6]; first compound 0.08 µM
  relative viability: 0.911
[6]; first compound 0.253 µM
  relative viability: 0.662
[6]; first compound 0.8 µM
  relative viability: 0.813
[6]; first compound 2.53 µM
  relative viability: 1.14
[7]; first compound 0.08 µM
  relative viability: 0.189
[7]; first compound 0.253 µM
  relative viability: 0.141
[7]; first compound 2.53 µM
  relative viability: 0.184
[8]; first compound 0.08 µM
  relative viability: 0.477
[8]; first compound 0.253 µM
  relative viability: 0.493
[8]; first compound 0.8 µM
  relative viability: 0.357
[8]; first compound 2.53 µM
  relative viability: 0.526
[9]; first compound 0.08 µM
  relative viability: 0.88
[9]; first compound 0.253 µM
  relative viability: 0.936
[9]; first compound 0.8 µM
  relative viability: 0.854
[9]; first compound 2.53 µM
  relative viability: 0.916
[10]; first compound 0.08 µM
  relative viability: 0.876
[10]; first compound 0.253 µM
  relative viability: 0.892
[10]; first compound 0.8 µM
  relative viability: 0.877
[10]; first compound 2.53 µM
  relative viability: 0.889
[11]; first compound 0.253 µM
  relative viability: 0.319
[11]; first compound 0.8 µM
  relative viability: 0.309
[11]; first compound 2.53 µM
  relative viability: 0.405
[12]; first compound 0.08 µM
  relative viability: 0.769
[12]; first compound 0.253 µM
  relative viability: 0.584
[12]; first compound 0.8 µM
  relative viability: 0.61
[12]; first compound 2.53 µM
  relative viability: 0.732
[13]; first compound 0.08 µM
  relative viability: 0.264
[13]; first compound 0.253 µM
  relative viability: 0.256
[13]; first compound 0.8 µM
  relative viability: 0.445
[13]; first compound 2.53 µM
  relative viability: 0.248
[14]; first compound 0.08 µM
  relative viability: 1.03
[14]; first compound 0.253 µM
  relative viability: 1.01
[14]; first compound 0.8 µM
  relative viability: 1.01
[14]; first compound 2.53 µM
  relative viability: 1.03
[15]; first compound 0.08 µM
  relative viability: 0.884
[15]; first compound 0.253 µM
  relative viability: 0.852
[15]; first compound 0.8 µM
  relative viability: 0.892
[15]; first compound 2.53 µM
  relative viability: 0.918
[16]; first compound 0.08 µM
  relative viability: 0.95
[16]; first compound 0.253 µM
  relative viability: 0.705
[16]; first compound 0.8 µM
  relative viability: 1.01
[16]; first compound 2.53 µM
  relative viability: 0.99
[17]; first compound 0.08 µM
  relative viability: 0.0594
[17]; first compound 0.253 µM
  relative viability: 0.0676
[17]; first compound 0.8 µM
  relative viability: 0.0545
[17]; first compound 2.53 µM
  relative viability: 0.0682
[18]; first compound 0.08 µM
  relative viability: 0.503
[18]; first compound 0.253 µM
  relative viability: 0.461
[18]; first compound 0.8 µM
  relative viability: 0.656
[18]; first compound 2.53 µM
  relative viability: 0.472
[19]; first compound 0.08 µM
  relative viability: 0.163
[19]; first compound 0.253 µM
  relative viability: 0.179
[19]; first compound 0.8 µM
  relative viability: 0.0897
[19]; first compound 2.53 µM
  relative viability: 0.147
[20]; first compound 0.08 µM
  relative viability: 0.942
[20]; first compound 0.253 µM
  relative viability: 0.785
[20]; first compound 0.8 µM
  relative viability: 0.799
[20]; first compound 2.53 µM
  relative viability: 1.08
[21]; first compound 0.08 µM
  relative viability: 1.18
[21]; first compound 0.253 µM
  relative viability: 1.01
[21]; first compound 0.8 µM
  relative viability: 0.95
[21]; first compound 2.53 µM
  relative viability: 1.07
[22]; first compound 0.08 µM
  relative viability: 0.319
[22]; first compound 0.253 µM
  relative viability: 0.408
[22]; first compound 0.8 µM
  relative viability: 0.281
[22]; first compound 2.53 µM
  relative viability: 0.352
